Tests used:
Format in all cases: cell-based, mouse
MSS31 cells = test: Capillary formation (tube formation) on Matrigel
[1] = system: NMIIA (Ser1943) in MSS31 cells; test: NMIIA Ser1943 phosphorylation by western blot; conditions: 5 μg/well, 18 hours
Procedure: Figure 6 Stimulation of NMIIA phosphorylation and filament assembly by the NBD peptide. MSS31 cells incubated with atelocollagen alone or the peptide/atelocollagen complexes were subjected to western blot analysis and immunofluorescent staining. (a) Western blot analysis of NMIIA phosphorylation. Total cellular proteins were subjected to immunoblot analysis. The band intensity of p-NMIIA relative to that of total NMIIA was measured using ImageJ software and normalized to control cells. (b) NMIIA assembly. MSS31 cells were simultaneously incubated with rabbit polyclonal anti-S100A4 antibody and mouse monoclonal anti-NMIIA antibody followed by Alexa Fluor 488-conjugated goat antirabbit IgG and Alexa Fluor 594-conjugated goat antimouse IgG. Nuclei were stained with DAPI. Scale bars: 50 μm. (c) Blockade of S100A4-NMIIA interaction by the NBD peptide. MSS31 cells were immunostained as in a. White arrows and yellow arrows indicate colocalized areas and independently localized areas of S100A4 and NMIIA, respectively. Bars: 20 μm. TEXT PRINTED IN THE PICTURE: (a) NBD: p-NMIIA/total NMIIA: 1.78 | (a) CBD: p-NMIIA/total NMIIA: 0.66 […]

NMIIA in MSS31 cells = test: NMIIA filament assembly and S100A4-NMIIA colocalization by immunofluorescence; conditions: atelocollagen complex, 5 μg/well, 18 hours
Procedure: Figure 6 Stimulation of NMIIA phosphorylation and filament assembly by the NBD peptide. MSS31 cells incubated with atelocollagen alone or the peptide/atelocollagen complexes were subjected to western blot analysis and immunofluorescent staining. (a) Western blot analysis of NMIIA phosphorylation. Total cellular proteins were subjected to immunoblot analysis. The band intensity of p-NMIIA relative to that of total NMIIA was measured using ImageJ software and normalized to control cells. (b) NMIIA assembly. MSS31 cells were simultaneously incubated with rabbit polyclonal anti-S100A4 antibody and mouse monoclonal anti-NMIIA antibody followed by Alexa Fluor 488-conjugated goat antirabbit IgG and Alexa Fluor 594-conjugated goat antimouse IgG. Nuclei were stained with DAPI. Scale bars: 50 μm. (c) Blockade of S100A4-NMIIA interaction by the NBD peptide. MSS31 cells were immunostained as in a. White arrows and yellow arrows indicate colocalized areas and independently localized areas of S100A4 and NMIIA, respectively. Bars: 20 μm. TEXT PRINTED IN THE PICTURE: (a) NBD: p-NMIIA/total NMIIA: 1.78 | (a) CBD: p-NMIIA/total NMIIA: 0.66
MSS31 cells cultured in six-well plates were incubated with 5 μg/well of the NBD or the CBD peptide/atelocollagen complex or atelocollagen alone for 18 hours in Culture Slides (4 wells, BD Falcon) and were washed three times with DPBS and fixed for 10 minutes at 4 °C with 4% formaldehyde in DPBS. After permeabilizing with 0.5% Triton X-100 in DPBS for 4 minutes, the cells were treated with 3% bovine serum albumin in DPBS containing 0.1% glycine for 1 hour to block nonspecific binding sites. After washing with DPBS, the cells were incubated for 1 hour with primary antibodies, rinsed, and then stained with secondary antibodies. The primary antibodies used were polyclonal anti-S100A4, monoclonal anti-NMIIA antibody, monoclonal antivinculin antibody and polyclonal anti-integrin β1 antibody. The secondary antibody was Alexa Fluor 488-conjugated goat antirabbit IgG (Invitrogen) or Alexa Fluor 594-conjugated goat antimouse IgG (Invitrogen). […]

[2] = system: vinculin, integrin β1 and FAK in MSS31 cells; test: Expression of vinculin, integrin β1 and FAK by western blot; conditions: total cell lysates, vs control cells; 5 μg/well, 18 hours
Procedure: Figure 7 Stimulation of the formation of focal contacts by the NBD peptide. MSS31 cells incubated with atelocollagen alone or the peptide/atelocollagen complexes were subjected to immunofluorescent staining and western blot analysis. (a) Formation of focal adhesions. The cells were immunostained with antivinculin or anti-integrin β1 antibody followed by Alexa Fluor 488-conjugated secondary antibody. F-actin was visualized with Atto 647N-Phalloidin. Nuclei were stained with DAPI. Scale bars: 50 μm. (b) Western blot analysis of focal adhesion proteins. Total cellular proteins were subjected to immunoblot analysis. (c) Relative expression level of vinculin (VCN), integrin β1 (ITGβ1) and p-FAK. The band intensity of VCN and ITGβ1 and p-FAK relative to that of β-actin and total FAK, respectively, was measured using ImageJ software and normalized to control cells.
MSS31 cells cultured in six-well plates were incubated with 5 μg/well of the NBD or the CBD peptide/atelocollagen complex or atelocollagen alone for 18 hours and were lysed in M-PER Mammarian Protein Extraction Reagent (Thermo Fisher Scientific, Waltham, MA) containing complete, EDTA-free, EASYpack (Roche Applied Science, Penzberg, Upper Bavaria, Germany) and Halt Phosphatase Inhibitor Cocktail (Thermo Fisher Scientific). The lysates was used for immunoblot analysis. […]

S100A4 in MSS31 cells = test: S100A4 expression in peptide-loaded cells by western blot; conditions: atelocollagen complex; Supplementary Figure S3

With “NBD: N-terminal 39 amino acid sequence of SBD, from Arg170 to Ileu208; corresponding to MetAP2 (170–208) (REAAEAHRQVRKYVMSWIKPGMTMIEICEKLEDCSRKLI)” the “time at which inhibition of capillary formation is apparent” value (MSS31 cells; after peptide loading, Supplementary Figure S4) was at most 6 h, the “tube (capillary) formation” value (MSS31 cells; atelocollagen complex, 5 μg/well, Matrigel with 50 ng/ml HGF, 16 hours, n = 6, *P < 0.01) was “severely impaired tube formation” and the “Ser1943 phosphorylation of NMIIA” value ([1]; atelocollagen complex) was “enhanced Ser1943 phosphorylation of NMIIA”. For the same substance, the “p-NMIIA/total NMIIA” value ([1]; band intensity, normalized to control cells (atelocollagen alone)) was 1.78, the NMIIA filament assembly (NMIIA in MSS31 cells) was “stimulated filament assembly in MSS31 cells” and the “colocalization of S100A4 and NMIIA” value (NMIIA in MSS31 cells) was “the majority of S100A4 was not colocalized with NMIIA filaments”. The “distribution of NMIIA filaments” value (NMIIA in MSS31 cells) was “evenly distributed throughout the cells and showed no polarization”, the “expression of vinculin, integrin β1 and FAK” value [2] was “no significant difference in the expressions of vinculin, integrin β1 and FAK” and the “expression level of S100A4” value (S100A4 in MSS31 cells) was “no apparent change in the expression level of S100A4”.
